test system: p53; test: Stabilisation of p53 (U343MG); assay type: cell-based, human; settings: due to reduction of p53 bonded to MDM2, not mRNA induction, FIG. 1

Row | Structure (SMILES) | Stabilisation of p53
1 | CC(=O)OCC1=C(C(=O)OC(C)(C)C)N2C(=O)[C@@H](NC(=O)COc3ccc4c(c3)CCc3c-4[nH]c4ccc(F)cc34)[C@H]2SC1 [RM37, (6R, 7R)-tert-butyl-7-(2-(8-fluoro-6,11-dihydro-5H-benzo[a]carbazol-3-yloxy)acetamido)-3-(acetoxymethyl)-8-oxo-5-thia-1-azabicyclo[4.2.0]oct-2-ene-2-carboxylate] | stabilisation of p53

test system: U343MG; test: Effect on cell cycle (U343MG); assay type: cell-based, human; settings: FIG. 6
Description: 7) Effect of RM37 on cell cycle (U343MG; 1,2). […] The results are set out in FIG. 6.

Row | Structure (SMILES) | Effect on cell cycle
2 | CC(=O)OCC1=C(C(=O)OC(C)(C)C)N2C(=O)[C@@H](NC(=O)COc3ccc4c(c3)CCc3c-4[nH]c4ccc(F)cc34)[C@H]2SC1 [RM37, (6R, 7R)-tert-butyl-7-(2-(8-fluoro-6,11-dihydro-5H-benzo[a]carbazol-3-yloxy)acetamido)-3-(acetoxymethyl)-8-oxo-5-thia-1-azabicyclo[4.2.0]oct-2-ene-2-carboxylate] | blocks the cell cycle in G1

molecular target: T1, p53/MDM2 complex (Homo sapiens, UniProt Q00987); test: Inhibitory effect on p53/MDM2 complex binding, cell lysate of human glioblastoma U343MG cells; settings: 10 uM; cell lysate of human glioblastoma (GBM) cells U343MG; read-out: % inhibition at 10 uM of p53/MDM2 complex binding
T1 construct: Test performed on cell lysate of human glioblastoma (GBM) cells U343MG; endogenous in cells; host or cells: U343MG human glioblastoma cells (lysate)
Description: Test performed on cell lysate of human glioblastoma (GBM) cells U343MG (1,2).

T1 sequence (Q00987 whole entry, one chain of several): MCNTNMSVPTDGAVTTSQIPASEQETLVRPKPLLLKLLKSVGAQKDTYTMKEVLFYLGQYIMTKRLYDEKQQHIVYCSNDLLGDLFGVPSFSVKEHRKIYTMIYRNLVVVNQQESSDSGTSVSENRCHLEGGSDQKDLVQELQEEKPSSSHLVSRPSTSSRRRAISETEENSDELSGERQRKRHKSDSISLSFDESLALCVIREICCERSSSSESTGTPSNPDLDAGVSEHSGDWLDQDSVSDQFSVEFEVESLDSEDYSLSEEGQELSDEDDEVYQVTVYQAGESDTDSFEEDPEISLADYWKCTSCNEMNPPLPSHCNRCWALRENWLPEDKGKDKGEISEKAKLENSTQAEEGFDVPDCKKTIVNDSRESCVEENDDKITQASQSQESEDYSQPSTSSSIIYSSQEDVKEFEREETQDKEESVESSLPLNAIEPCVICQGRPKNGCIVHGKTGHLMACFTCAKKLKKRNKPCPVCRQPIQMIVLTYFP

Row | inhibition at 10 µM [%] | Structure (SMILES)
3 | < 5 | Clc1ccc2[nH]c3c(c2c1)COc1ccccc1-3 [RA15]
4 | 22 | CCNC(=O)COc1ccc2c(c1)S(=O)(=O)Cc1c-2[nH]c2ccc(F)cc12 [RA13]
5 | < 5 | COc1ccc2c(c1)-c1[nH]c3ccc(Cl)cc3c1CO2 [RA16]
6 | 58 | CN(C)CCCn1c2ccc(Cl)cc2c2ccc3cc(OCC(=O)O)ccc3c21 [RM58]

Row | Structure (SMILES) | inhibition at 10 µM [%]
7 | CC(=O)OCC1=C(C(=O)O)N2C(=O)[C@@H](NC(=O)COc3ccc4c(c3)CCc3c-4[nH]c4ccc(F)cc34)[C@H]2SC1 [RM53, (6R,7R)-7-(2-[(8-fluoro-6,11-dihydro-5H-benzo[a]carbazol-3-yl)oxy]acetamido)-3-(acetoxymethyl)-8-oxy-5-thia-1-azabicyclo[4.2.0]oct-2-ene-2-carboxylic acid] | < 5

same assay, conditions: cell lysate of human glioblastoma (GBM) cells U343MG

Row | Structure (SMILES) | IC50 [nM]
8 | CNC(=O)C(CCCNC(=O)OCc1ccccc1)NC(=O)COc1ccc2c(c1)OCc1c-2[nH]c2ccc(F)cc12 (stereo not shown) [RA18] | 1350 ± 150
9 | O=C(COc1ccc2c(c1)S(=O)(=O)CCc1c-2[nH]c2ccc(F)cc12)NCc1ccc(F)c(F)c1 [RA1] | 920 ± 20
10 | CC(=O)OCC1=C(C(=O)OC(C)(C)C)N2C(=O)[C@@H](NC(=O)COc3ccc4c(c3)CCc3c-4[nH]c4cccc([N+](=O)[O-])c34)[C@H]2SC1 [GA09a] | 650 ± 50
11 | COc1ccc2[nH]c3c(c2c1)CCCc1cc(OCC(=O)O)ccc1-3 [RA2] | 2900 ± 120
12 | COc1cc2c(cc1OC)-c1c(c3c(N)cccc3n1CCCN(C)C)CCC2 [GA17M8] | 12700 ± 1500
13 | CCOC(=O)/C(COc1ccc2c(ccc3c4cc(Cl)ccc4n(CCCN(C)C)c23)c1)=N/OC [RM66] | 2700 ± 120
14 | CNC(=O)C(CCCNC(=O)OCc1ccccc1)NC(=O)COc1ccc2c(c1)NCc1c-2[nH]c2ccc(F)cc12 (stereo not shown) [RA20] | 1550 ± 250
15 | CC(=O)OCC1=C(C(=O)OC(C)(C)C)N2C(=O)[C@@H](NC(=O)COc3ccc4c(c3)CCc3c-4[nH]c4ccc(F)cc34)[C@H]2SC1 [RM37, (6R, 7R)-tert-butyl-7-(2-(8-fluoro-6,11-dihydro-5H-benzo[a]carbazol-3-yloxy)acetamido)-3-(acetoxymethyl)-8-oxo-5-thia-1-azabicyclo[4.2.0]oct-2-ene-2-carboxylate] | 222 ± 44

More lines, now with the values ahead:

Row | IC50 [nM] | Structure (SMILES)
16 | 620 ± 50 | CN(C)C(=O)C(CCCNC(=O)OCc1ccccc1)NC(=O)COc1ccc2c(c1)S(=O)(=O)NCc1c-2[nH]c2ccc(F)cc12 (stereo not shown) [RA3]
17 | 450 ± 15 | CNC(=O)C(CCCNC(=O)OCc1ccccc1)NC(=O)COc1ccc2c(c1)OCc1c-2[nH]c2ccc(OCC(=O)NC(CCc3ccccc3)C(=O)N(C)C)cc12 (stereo not shown) [RA19]
18 | 375 ± 22 | COc1ccc(COC(=O)C2N3C(=O)C(NC(=O)COc4ccc5c(c4)OCc4c-5[nH]c5ccc(Br)cc45)C3SC2(C)C)cc1 (stereo not shown) [RA35]
19 | 292 ± 25 | CC(C)(C)OC(=O)C1N2C(=O)C(NC(=O)COc3ccc4c(c3)S(=O)(=O)NCc3c-4[nH]c4ccc(F)cc34)C2SC1(C)C (stereo not shown) [RA42]
20 | 280 ± 20 | CC(=O)OCC1=C(C(=O)OC(C)(C)C)N2C(=O)C(NC(=O)COc3ccc4c(c3)CCc3c-4[nH]c4ccc(Cl)cc34)C2SC1 (stereo not shown) [RM36]
21 | 232 ± 200 | CC(=O)OCC1=C(C(=O)OC(C)(C)C)N2C(=O)C(NC(=O)COc3ccc4c(c3)C(=O)Cc3c-4[nH]c4ccc(C(F)(F)F)cc34)C2SC1 (stereo not shown) [RM39]
22 | 228 ± 16 | COc1ccc(COC(=O)C2N3C(=O)C(NC(=O)COc4ccc5c(c4)S(=O)(=O)CCc4c-5[nH]c5ccc(F)cc45)C3SC2(C)C)cc1 (stereo not shown) [RM43]
23 | 225 ± 20 | CC(=O)OCC1=C(C(=O)OC(C)(C)C)N2C(=O)[C@@H](NC(=O)COc3ccc4c(c3)CCc3c-4[nH]c4cc([N+](=O)[O-])ccc34)[C@H]2SC1 [GA09b]
24 | 223 ± 22 | CCNC(=O)C(CCCNC(=O)OCc1ccccc1)NC(=O)CC1C(NC(=O)COc2ccc3c(c2)S(=O)(=O)NCc2c-3[nH]c3ccc(F)cc23)C(=O)N1CC(=O)OCc1ccc(OC)cc1 (stereo not shown) [RA44]
25 | 222 ± 210 | CC(=O)OCC1=C(C(=O)OC(C)(C)C)N2C(=O)C(NC(=O)COc3ccc4c(c3)/C(=N\O)Cc3c-4[nH]c4ccc(F)cc34)C2SC1 (stereo not shown) [RM38]
26 | 220 ± 100 | CC(=O)OCC1=C(C(=O)OC(C)(C)C)N2C(=O)C(NC(=O)COc3ccc4c(c3)S(=O)(=O)Nc3c-4[nH]c4ccc(F)cc34)C2SC1 (stereo not shown) [RA36]
27 | 197 ± 124 | CC(=O)OCC1=C(C(=O)OC(C)(C)C)N2C(=O)C(NC(=O)COc3ccc4c(c3)S(=O)(=O)NCc3c-4[nH]c4ccc(F)cc34)C2SC1 (stereo not shown) [RA40]
28 | 195 ± 22 | CC(=O)OCC1=C(C(=O)OC(C)(C)C)N2C(=O)C(NC(=O)COc3ccc4c(c3)CCc3c-4[nH]c4ccc(Br)cc34)C2SC1 (stereo not shown) [RM47]
29 | 180 ± 150 | CCOC(=O)CO/N=C1/Cc2c([nH]c3ccc(F)cc23)-c2ccc(OCC(=O)NC3C(=O)N4C(C(=O)OC(C)(C)C)=C(COC(C)=O)CSC34)cc21 (stereo not shown) [RA37]
30 | 150 ± 10 | CCNC(=O)C(CCCNC(=O)OCc1ccccc1)NC(=O)CC1C(NC(=O)COc2ccc3c(c2)S(=O)(=O)Cc2c-3[nH]c3ccc(F)cc23)C(=O)N1CC(=O)OCc1ccc(OC)cc1 (stereo not shown) [RA30]
31 | 143 ± 16 | CC(=O)OCC1=C(C(=O)OC(C)(C)C)N2C(=O)C(NC(=O)COc3ccc4c(c3)S(=O)(=O)Cc3c-4[nH]c4ccc(F)cc34)C2SC1 (stereo not shown) [RA25]
32 | 120 ± 90 | COc1ccc(COC(=O)C2N3C(=O)C(NC(=O)COc4ccc5c(c4)S(=O)(=O)Nc4c-5[nH]c5ccc(Br)cc45)C3SC2(C)C)cc1 (stereo not shown) [RA26]
33 | 120 ± 45 | CC(=O)OCC1=C(C(=O)OC(C)(C)C)N2C(=O)C(NC(=O)COc3ccc4c(c3)OCc3c-4[nH]c4ccc(F)cc34)C2S(=O)(=O)C1 (stereo not shown) [RA31]
34 | 100 ± 30 | CCNC(=O)CO/N=C1/Cc2c([nH]c3ccc(F)cc23)-c2ccc(OCC(=O)NC3C(=O)N4C3SC(C)(C)C4C(=O)OCc3ccc(OC)cc3)cc21 (stereo not shown) [RA29]

same assay, conditions: read-out: % inhibition at 10 uM of p53/MDM2 complex binding

Row | Structure (SMILES) | inhibition at 10 µM [%]
35 | COC(=O)C(NC(=O)COc1ccc2c(ccc3c4cc(Cl)ccc4n(CCCN(C)C)c23)c1)c1ccccc1 (stereo not shown) [RM85] | 82

test system: protein p53; test: Stabilisation of intracellular levels of protein p53 (343MG); assay type: cell-based, human; settings: U343MG; FIG. 3
Source text: 1) Costa, B; Grillone, A F; Salvetti, A; Rocchiccioli, S; Iacopetti, P; Daniele, S; Da Pozzo, E; Campiglia, P; Novellino, E; Martini, C; Rossi, L An antibody-free strategy for screening putative HDM2 inhibitors using crude bacterial lysates expressing GST-HDM2 recombinant protein Drug Testing and Analysis (2013), 5, 7, 596-601.
2) Costa B, Bendinelli S, Gabelloni P, Da Pozzo E, Daniele S, et al. Human Glioblastoma Multiforme: p53 Reactivation by a Novel MDM2 Inhibitor. PLoS ONE (2013) 8(8): e72281. doi:10.1371/journal.pone.0072281.
The results are set out in FIG. 3.

Row | Structure (SMILES) | Stabilisation of intracellular levels of protein p53
36 | CC(=O)OCC1=C(C(=O)OC(C)(C)C)N2C(=O)[C@@H](NC(=O)COc3ccc4c(c3)CCc3c-4[nH]c4ccc(F)cc34)[C@H]2SC1 [RM37, (6R, 7R)-tert-butyl-7-(2-(8-fluoro-6,11-dihydro-5H-benzo[a]carbazol-3-yloxy)acetamido)-3-(acetoxymethyl)-8-oxo-5-thia-1-azabicyclo[4.2.0]oct-2-ene-2-carboxylate] | stabilises the intracellular levels of protein p53

test system: U343MG; test: Effect on cell apoptosis (U343MG); assay type: cell-based, human; settings: FIG. 7 and FIG. 8
Description: 8) Effect of RM37 on cell apoptosis (U343MG; 1,2). […] The results are set out in FIG. 7 and FIG. 8.

Row | Structure (SMILES) | Effect on cell apoptosis
37 | CC(=O)OCC1=C(C(=O)OC(C)(C)C)N2C(=O)[C@@H](NC(=O)COc3ccc4c(c3)CCc3c-4[nH]c4ccc(F)cc34)[C@H]2SC1 [RM37, (6R, 7R)-tert-butyl-7-(2-(8-fluoro-6,11-dihydro-5H-benzo[a]carbazol-3-yloxy)acetamido)-3-(acetoxymethyl)-8-oxo-5-thia-1-azabicyclo[4.2.0]oct-2-ene-2-carboxylate] | induces cell apoptosis

From patent publication US20200299306A1, “COMPOUNDS WITH A BENZO[A]CARBAZOLE STRUCTURE AND USE THEREOF” (UNIVERSITA' DI PISA, priority 2017, published 2020)
